Measured values as given in PubChem BioAssay AID2060611 (Molecular Pharmacology Branch, DTP, NCI, 2025).
Where “and” joins values, the source holds several entries; their conditions need not be identical. Equal entries are not always repeated.

Test system: 628569-122-R-J1-PDC complex spheroid viability
Test: Anticancer human tumor 628569-122-R-J1-PDC patient-derived head and neck squamous carcinoma cell line growth inhibition [CLK]
Details: for viability, T/C: stronger effect = lower value
Summary of the method: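 Patient-derived tumor cells grown as complex spheroids with HUVEC endothelial cells and mesenchymal stem cells, treated with drug combinations. Concentrations descend in half-log steps from near clinical Cmax, or from 10 microM if Cmax unknown.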
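Further: spheroids exposed to agents for seven days before readout.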
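Wherever viability, T/C is given: 100% = DMSO vehicle control viability.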

`CC(=O)O[C@H]1C(=O)[C@@]2(C)[C@H]([C@H](OC(=O)c3ccccc3)[C@]3(O)C[C@H](OC(=O)[C@H](O)[C@@H](NC(=O)c4ccccc4)c4ccccc4)C(C)=C1C3(C)C)[C@]1(OC(C)=O)CO[C@@H]1C[C@@H]2O` was tested, and the viability, T/C (compound 0.0316 µM) was 29.1% and 29.6%, the viability, T/C (compound 0.1 µM) was 30.8% and 26.9% and the viability, T/C (compound 0.316 µM) was 27.4% and 26.9%. The viability, T/C (compound 1 µM) was 27.5% and 24.6%, the viability, T/C (compound 3.16 µM) was 27.2% and 33.9% and the viability, T/C (compound 10 µM) was 44.5% and 41.1%. The IC50 (curve of compound) was under 0.0316 µM.
`COC1C=CCC(C)C(C)S(=O)(=O)NC(=O)c2ccc3c(c2)N(CC2CCC21)CC1(CCCc2cc(Cl)ccc21)CO3` (centres undefined) + CNC(=O)c1ccc(Nc2nc(OC3CCCC3)c3c(-c4ccc5nc(C)oc5c4)c[nH]c3n2)c(OC)c1 gave an IC50 (curve of first compound, second compound 0.0316 µM) of 2 µM, an IC50 (curve of first compound, second compound 0.1 µM) of 0.142 µM and an IC50 (curve of first compound, second compound 0.316 µM) of under 0.0316 µM. It also gave an IC50 (curve of first compound, second compound 1 µM) of under 0.0316 µM, an IC50 (curve of first compound, second compound 3.16 µM) of under 0.0316 µM and an IC50 (curve of first compound, second compound 10 µM) of under 0.0316 µM. For the same molecule, the viability, T/C (second compound 0.0316 µM, first compound 0.0316 µM) was 103%, the viability, T/C (second compound 0.0316 µM, first compound 0.1 µM) was 87.7% and the viability, T/C (second compound 0.0316 µM, first compound 0.316 µM) was 64.8%. The viability, T/C (second compound 0.0316 µM, first compound 1 µM) was 55.4%, the viability, T/C (second compound 0.0316 µM, first compound 3.16 µM) was 48.4% and the viability, T/C (second compound 0.0316 µM, first compound 10 µM) was 43.5%. For the same molecule, the viability, T/C (second compound 0.1 µM, first compound 0.0316 µM) was 58.7%, the viability, T/C (second compound 0.1 µM, first compound 0.1 µM) was 51% and the viability, T/C (second compound 0.1 µM, first compound 0.316 µM) was 47.7%. The viability, T/C (second compound 0.1 µM, first compound 1 µM) was 40.3%, the viability, T/C (second compound 0.1 µM, first compound 3.16 µM) was 34.8% and the viability, T/C (second compound 0.1 µM, first compound 10 µM) was 34.3%. It also gave a viability, T/C (second compound 0.316 µM, first compound 0.0316 µM) of 46.3%, a viability, T/C (second compound 0.316 µM, first compound 0.1 µM) of 49.7% and a viability, T/C (second compound 0.316 µM, first compound 0.316 µM) of 36.7%. For the same molecule, the viability, T/C (second compound 0.316 µM, first compound 1 µM) was 33.1%, the viability, T/C (second compound 0.316 µM, first compound 3.16 µM) was 35.8% and the viability, T/C (second compound 0.316 µM, first compound 10 µM) was 33.4%. For the same molecule, the viability, T/C (second compound 1 µM, first compound 0.0316 µM) was 51.2%, the viability, T/C (second compound 1 µM, first compound 0.1 µM) was 45.9% and the viability, T/C (second compound 1 µM, first compound 0.316 µM) was 36.9%. For the same molecule, the viability, T/C (second compound 1 µM, first compound 1 µM) was 35.9%, the viability, T/C (second compound 1 µM, first compound 3.16 µM) was 46% and the viability, T/C (second compound 1 µM, first compound 10 µM) was 34.6%. It also gave a viability, T/C (second compound 3.16 µM, first compound 0.0316 µM) of 43.2%, a viability, T/C (second compound 3.16 µM, first compound 0.1 µM) of 41.1% and a viability, T/C (second compound 3.16 µM, first compound 0.316 µM) of 33.4%. For the same molecule, the viability, T/C (second compound 3.16 µM, first compound 1 µM) was 29.4%, the viability, T/C (second compound 3.16 µM, first compound 3.16 µM) was 30.9% and the viability, T/C (second compound 3.16 µM, first compound 10 µM) was 25.4%. The viability, T/C (second compound 10 µM, first compound 0.0316 µM) was 40.1%, the viability, T/C (second compound 10 µM, first compound 0.1 µM) was 38.4% and the viability, T/C (second compound 10 µM, first compound 0.316 µM) was 32.1%. It also gave a viability, T/C (second compound 10 µM, first compound 1 µM) of 30.5%, a viability, T/C (second compound 10 µM, first compound 3.16 µM) of 35.9% and a viability, T/C (second compound 10 µM, first compound 10 µM) of 26.4%.
